Laboratory results published in patent publication US8124831B2, “Transgenic mice carrying functional single nucleotide polymorphisms in brain-specific tryptophan hydroxylase” (Duke University, priority 2006, dated 2012).

Tested on: R439H Tph2 knock-in mice
Assay: Tail suspension test after drug administration
Assay type: in vivo, mouse
Conditions: HO Tph2 knock-in mice; 30 min following administration; fluoxetine 5 mg/kg, TDZD 10 mg/kg (i.p.); vs vehicle (FIG. 7)
Experimental: Tail suspension test: Mice were tested in a tail suspension apparatus (Med-Associates, St. Albans, Vt.) as described (Crowley et al., 2004, Pharmacol. Biochem. Behav. 78:269-274). All mice were weighed and tail-marked 24 hrs before testing. Animals were brought into the testing room 4 hrs before injections. Pilot studies were used to determine the optimal automated threshold settings for immobility by comparing scores rated manually with scores tabulated simultaneously by the apparatus. Behavior was scored as time spent in immobility (sec) for the total period of the test.
Administration of anti-depressants or glycogen synthase kinase 3 inhibitors alleviates behavioral differences. Fluoxetine (Tocris Cookson Inc., Ellisville, Mo.) was dissolved in distilled water. Thiadiazolidinone (TDZD) (Calbiochem, Cambridge, Mass.) was injected (i.p.) following suspension in a minimal amount of Tween and diluted to volume with distilled water as previously described (Beaulieu et al., 2004, Proc. Natl Acad. Sci. USA 101:5099-5104). Corresponding vehicle solutions were injected in control animals. Mice were treated with vehicle or drug 30 min before testing. Behavioral testing was performed as described above.

| Compound | immobility times in the tail suspension test |
| --- | --- |
| Cn1sc(=O)n(Cc2ccccc2)c1=O [TDZD, thiadiazolidinone] | comparable reduction of immobility times |
| CNCCC(Oc1ccc(C(F)(F)F)cc1)c1ccccc1 (centres unmarked) [fluoxetine] | comparable reduction of immobility times |
